# Measurements published in article PMC7782983, “Anion inhibition studies of the Zn(II)-bound ι-carbonic anhydrase from the Gram-negative bacterium Burkholderia territorii” (Journal of Enzyme Inhibition and Medicinal Chemistry, 2021).
# Target: BteCAι
# Experiment: stopped-flow CO2 hydrase assay
# Type: biochemical, Burkholderia territorii
# Conditions: CO2 hydration, HEPES pH 7.5, 20 mM NaClO4, 15 min preincubation, room temperature; Zn(II) enzyme; read-out: KI (mM)^a / BteCAι^d
row,SMILES,Ki [mM]
1,N#CO [CNO^−],0.79
2,O=C(O)O [CO3^2−],4.4
3,Cl [Cl^−],3.1
4,CCN(CC)C(=S)S [EtNCS2^−],0.81
5,O=C(O)O [HCO3^−],0.94
6,NS(N)(=O)=O [NH2SO2NH2],0.086
7,NS(=O)(=O)O [NH2SO3H],0.0062
8,OB(O)c1ccccc1 [PhB(OH)2],0.009
9,O=S(=O)(O)OOS(=O)(=O)O [S2O8^2−],7.4
10,N#CS [SCN^−],6.1
11,O=S(=O)(O)O [SO4^2−],5.8
12,N#C[SeH] [SeCN^−],6.6
13,[O]=[Sn]([OH])[OH] [SnO3^2−],0.094

# Same assay, conditions: read-out: KI (mM)^a / BteCAι^d
row,SMILES,Ki [mM]
1,O=[As](O)(O)c1ccccc1 [PhAsO3H2],0.008
